Measured values: ChEMBL document CHEMBL1132204, “Design and synthesis of phosphinamide-based hydroxamic acids as inhibitors of matrix metalloproteinases” (J Med Chem, 1999)

Experiments:
Stromelysin-1 = Stromelysin-1 (Homo sapiens, UniProt P08254); experiment: Inhibition of human matrix metalloprotease-3
Interstitial collagenase = target: T1, Interstitial collagenase (Homo sapiens, UniProt P03956); experiment: Inhibition of human matrix metalloprotease 1
T1 sequence (P03956 whole entry): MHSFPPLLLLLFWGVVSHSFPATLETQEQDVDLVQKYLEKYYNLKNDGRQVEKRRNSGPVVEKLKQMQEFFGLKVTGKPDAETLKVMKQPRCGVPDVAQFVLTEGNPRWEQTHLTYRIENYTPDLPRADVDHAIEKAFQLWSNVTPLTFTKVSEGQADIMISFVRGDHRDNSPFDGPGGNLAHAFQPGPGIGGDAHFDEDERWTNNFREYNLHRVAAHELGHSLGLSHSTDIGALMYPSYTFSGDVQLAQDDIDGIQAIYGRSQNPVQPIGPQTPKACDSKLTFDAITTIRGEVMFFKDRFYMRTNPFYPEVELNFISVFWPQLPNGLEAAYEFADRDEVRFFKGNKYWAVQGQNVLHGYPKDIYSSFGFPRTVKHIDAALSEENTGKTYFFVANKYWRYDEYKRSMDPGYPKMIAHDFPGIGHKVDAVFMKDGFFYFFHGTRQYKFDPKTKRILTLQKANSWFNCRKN

[1] = target: 72 kDa type IV collagenase (Homo sapiens, UniProt P08253); experiment: Inhibition of human matrix metalloprotease 2
72 kDa type IV collagenase, sequence (P08253 whole entry): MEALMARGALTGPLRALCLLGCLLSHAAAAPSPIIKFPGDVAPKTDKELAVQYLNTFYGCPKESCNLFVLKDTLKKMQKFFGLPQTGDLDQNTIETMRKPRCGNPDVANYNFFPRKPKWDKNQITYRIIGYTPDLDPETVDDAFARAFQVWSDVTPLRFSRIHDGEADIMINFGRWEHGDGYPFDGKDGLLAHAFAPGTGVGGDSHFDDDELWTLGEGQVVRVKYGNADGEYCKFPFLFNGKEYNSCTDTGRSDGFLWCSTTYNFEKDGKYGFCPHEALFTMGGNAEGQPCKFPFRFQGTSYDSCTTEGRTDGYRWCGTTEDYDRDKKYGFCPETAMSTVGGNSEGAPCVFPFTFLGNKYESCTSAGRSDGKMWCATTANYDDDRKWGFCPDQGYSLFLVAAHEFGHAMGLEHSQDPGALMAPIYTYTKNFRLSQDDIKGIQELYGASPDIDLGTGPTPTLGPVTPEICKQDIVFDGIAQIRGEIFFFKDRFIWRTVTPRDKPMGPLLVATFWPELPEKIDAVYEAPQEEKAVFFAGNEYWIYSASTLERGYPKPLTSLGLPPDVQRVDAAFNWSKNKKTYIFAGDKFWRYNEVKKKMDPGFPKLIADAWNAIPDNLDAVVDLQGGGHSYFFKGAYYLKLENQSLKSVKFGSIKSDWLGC

[2] = target: Matrix metalloproteinase-9 (Homo sapiens, UniProt P14780); experiment: Inhibition of human matrix metalloprotease 9
Matrix metalloproteinase-9, sequence (P14780 whole entry): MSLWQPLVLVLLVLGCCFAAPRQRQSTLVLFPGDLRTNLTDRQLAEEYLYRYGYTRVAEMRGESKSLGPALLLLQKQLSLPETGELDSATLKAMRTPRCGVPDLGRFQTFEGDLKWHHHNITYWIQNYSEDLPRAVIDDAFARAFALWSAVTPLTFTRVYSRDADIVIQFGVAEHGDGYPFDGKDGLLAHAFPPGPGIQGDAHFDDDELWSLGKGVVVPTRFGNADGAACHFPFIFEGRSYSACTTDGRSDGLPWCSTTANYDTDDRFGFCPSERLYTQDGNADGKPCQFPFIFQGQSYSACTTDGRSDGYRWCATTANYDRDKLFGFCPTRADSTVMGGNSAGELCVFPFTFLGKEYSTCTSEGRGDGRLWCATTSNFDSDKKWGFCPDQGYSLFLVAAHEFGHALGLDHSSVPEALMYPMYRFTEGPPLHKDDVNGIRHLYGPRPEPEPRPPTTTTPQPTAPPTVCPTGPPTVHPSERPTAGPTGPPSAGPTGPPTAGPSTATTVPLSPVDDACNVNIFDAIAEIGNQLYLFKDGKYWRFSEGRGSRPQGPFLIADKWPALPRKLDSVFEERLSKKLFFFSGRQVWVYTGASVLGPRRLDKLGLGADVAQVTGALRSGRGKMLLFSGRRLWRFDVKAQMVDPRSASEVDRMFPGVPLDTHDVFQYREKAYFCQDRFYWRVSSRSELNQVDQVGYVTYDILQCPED

Neutrophil collagenase = Neutrophil collagenase (Homo sapiens, UniProt P22894); experiment: Inhibition of human Matrix metalloprotease-8
Neutrophil collagenase, sequence (P22894 whole entry): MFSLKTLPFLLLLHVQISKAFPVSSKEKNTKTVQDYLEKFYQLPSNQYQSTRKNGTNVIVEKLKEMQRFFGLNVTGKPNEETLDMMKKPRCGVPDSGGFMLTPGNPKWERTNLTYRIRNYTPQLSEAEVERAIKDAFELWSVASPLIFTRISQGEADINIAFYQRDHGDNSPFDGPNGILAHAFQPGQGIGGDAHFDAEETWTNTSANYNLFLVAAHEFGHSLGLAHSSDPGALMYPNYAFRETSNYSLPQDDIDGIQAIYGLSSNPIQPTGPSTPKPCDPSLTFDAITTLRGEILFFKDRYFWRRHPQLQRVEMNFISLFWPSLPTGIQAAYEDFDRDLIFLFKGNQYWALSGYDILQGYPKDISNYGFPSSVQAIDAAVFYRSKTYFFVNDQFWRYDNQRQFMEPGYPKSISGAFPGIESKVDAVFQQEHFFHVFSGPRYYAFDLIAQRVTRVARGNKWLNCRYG

Matrilysin = target: T2, Matrilysin (Homo sapiens, UniProt P09237); experiment: Inhibition of human matrix metalloprotease 7
T2 sequence (P09237 whole entry): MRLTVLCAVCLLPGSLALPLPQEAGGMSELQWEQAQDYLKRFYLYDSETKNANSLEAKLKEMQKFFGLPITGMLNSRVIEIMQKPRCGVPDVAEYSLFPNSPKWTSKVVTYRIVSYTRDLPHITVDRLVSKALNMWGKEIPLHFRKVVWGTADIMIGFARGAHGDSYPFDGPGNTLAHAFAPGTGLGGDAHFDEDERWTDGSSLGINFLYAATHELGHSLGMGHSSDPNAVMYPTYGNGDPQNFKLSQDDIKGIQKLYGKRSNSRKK

Collagenase 3 = Collagenase 3 (Rattus norvegicus, UniProt P23097)
Description: Inhibition of rat matrix metalloprotease 13

Stromelysin-1, sequence (P08254 whole entry): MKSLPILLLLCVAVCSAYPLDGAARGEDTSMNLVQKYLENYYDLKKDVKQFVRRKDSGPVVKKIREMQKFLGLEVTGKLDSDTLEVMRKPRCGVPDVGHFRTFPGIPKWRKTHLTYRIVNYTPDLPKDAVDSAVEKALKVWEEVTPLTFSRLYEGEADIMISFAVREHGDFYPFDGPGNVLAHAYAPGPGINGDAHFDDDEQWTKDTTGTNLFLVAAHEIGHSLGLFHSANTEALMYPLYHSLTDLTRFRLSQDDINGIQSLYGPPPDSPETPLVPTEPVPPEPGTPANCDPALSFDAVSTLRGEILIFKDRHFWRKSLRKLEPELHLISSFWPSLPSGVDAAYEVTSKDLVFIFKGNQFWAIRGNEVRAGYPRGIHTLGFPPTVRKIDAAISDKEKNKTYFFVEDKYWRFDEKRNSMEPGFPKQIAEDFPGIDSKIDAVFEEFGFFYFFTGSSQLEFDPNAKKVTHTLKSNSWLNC

| Compound | IC50 (Stromelysin-1) | IC50 (Interstitial collagenase) | IC50 [1] | IC50 [2] | IC50 (Neutrophil collagenase) | IC50 (Matrilysin) | IC50 (Collagenase 3) |
| --- | --- | --- | --- | --- | --- | --- | --- |
| CCP(=O)(c1ccccc1)N(Cc1ccccc1)[C@H](C)C(=O)NO (stereo partly specified) | 700 nM | 608 nM |  |  |  |  |  |
| C[C@H](C(=O)NO)N(Cc1ccccc1)P(=O)(c1ccccc1)c1ccccc1 | 10300 nM | 6790 nM |  |  |  |  |  |
| O=C(CN(CCc1ccccc1)P(=O)(c1ccccc1)c1ccccc1)NO | 1750 nM | 854 nM |  |  |  |  |  |
| CCCCCCN([C@H](C)C(=O)NO)[P@](C)(=O)c1ccccc1 | 1600 nM | 1290 nM |  |  |  |  |  |
| CC(C)C[C@H](C(=O)NO)N(Cc1ccccc1)[P@](C)(=O)c1ccccc1 | 24.4 nM | 20.5 nM | 13.3 nM | 20.6 nM | 5.3 nM | 886 nM | 7.4 nM |
| C[P@@](=O)(c1ccccc1)N(CCc1ccccc1)CC(=O)NO | 700 nM | 525 nM |  |  |  |  |  |
| C[C@H](C(=O)NO)N(Cc1ccccc1)[P@](C)(=O)c1ccccc1 | 67.9 nM | 120 nM |  | 32.5 nM |  | 1860 nM |  |
| CC(C)C[C@@H](N[P@@](C)(=O)c1ccccc1)C(=O)NO | 130000 nM | > 100000 nM |  |  |  |  |  |
| CC[P@@](=O)(c1ccccc1)N(Cc1ccccc1)[C@H](C)C(=O)NO | 49300 nM | 33300 nM |  |  |  |  |  |
| CC(C)C[C@H](C(=O)NO)N(Cc1ccccc1)P(C)(C)=O | 1040 nM | 518 nM |  |  |  |  |  |
| CC(C)C[C@@H](N[P@](C)(=O)c1ccccc1)C(=O)NO | 2550 nM | 2510 nM |  |  |  |  |  |
| CC(C)C[C@H](C(=O)NO)N(Cc1ccccc1)[P@@](C)(=O)c1ccccc1 | 9170 nM | 7120 nM |  |  |  |  |  |
